Data on five cell lines can be found in the supplement of paper PMC10307832.

Assay in all cases: relative viability (nuclei count vs DMSO), 5 days (fraction); higher = more cells survive
Compound in the experiment “CUDC-101 + Vorinostat”: C#Cc1cccc(Nc2ncnc3cc(OC)c(OCCCCCCC(=O)NO)cc23)c1 [CUDC-101] + O=C(CCCCCCC(=O)Nc1ccccc1)NO [Vorinostat] (partner 1 µM)
The procedure, abridged:
(§1)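 Relative viability equals treated-well nuclei counts divided by vehicle-well nuclei counts. Counts came from 4× images of lung cancer cell lines grown in 1536-well plates for 5 days after pin-tool dosing on the day after seeding. Dosing used one drug alone or a fixed anchor-drug dose plus five library-drug doses (not always all listed) in √10 steps, and values are medians of duplicate plates.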

Compound in experiment [1]: C1=CC=C2C(=C1)N=C(S2)C(C#N)C3=NC(=NC=C3)NCCC4=CN=CC=C4 + Nc1ncn([C@H]2C[C@H](O)[C@@H](CO)O2)c(=O)n1 [Decitabine] (partner 2 µM)
The procedure, abridged: as §1

Compound in the experiment “NVP-TAE684 + Palbociclib”: COc1cc(N2CCC(N3CCN(C)CC3)CC2)ccc1Nc1ncc(Cl)c(Nc2ccccc2S(=O)(=O)C(C)C)n1 [NVP-TAE684] + CC(=O)c1c(C)c2cnc(Nc3ccc(N4CCNCC4)cn3)nc2n(C2CCCC2)c1=O [Palbociclib] (partner 0.5 µM)
In a few lines: as §1

Compound in the experiment “NVP-TAE684 + Bortezomib”: COc1cc(N2CCC(N3CCN(C)CC3)CC2)ccc1Nc1ncc(Cl)c(Nc2ccccc2S(=O)(=O)C(C)C)n1 [NVP-TAE684] + CC(C)C[C@H](NC(=O)[C@H](Cc1ccccc1)NC(=O)c1cnccn1)B(O)O [Bortezomib] (partner 0.002 µM)
In a few lines: as §1

Compound in the experiment “NVP-TAE684 + Lapatinib”: COc1cc(N2CCC(N3CCN(C)CC3)CC2)ccc1Nc1ncc(Cl)c(Nc2ccccc2S(=O)(=O)C(C)C)n1 [NVP-TAE684] + CS(=O)(=O)CCNCc1ccc(-c2ccc3ncnc(Nc4ccc(OCc5cccc(F)c5)c(Cl)c4)c3c2)o1 [Lapatinib] (partner 2 µM)
In a few lines: as §1

Consider PC-3 [JPC-3], for which the relative viability in the experiment with CUDC-101 + Vorinostat (first compound 0.01 µM) is 0.753; in the experiment with CUDC-101 + Vorinostat (first compound 0.03162 µM), 0.691; with CUDC-101 + Vorinostat (first compound 0.1 µM) it was 0.387; with CUDC-101 + Vorinostat (first compound 0.3162 µM) it was 0.383; with CUDC-101 + Vorinostat (first compound 1 µM), 0.335; in experiment [1] (first compound 0.005 µM), 0.952. For the same cell line, the relative viability amounted to 0.758 in experiment [1] (first compound 0.05 µM); 0.825 in experiment [1] (first compound 0.1581 µM); 0.762 in experiment [1] (first compound 0.5 µM); 0.53 with NVP-TAE684 + Palbociclib (first compound 0.2 µM); 0.521 with NVP-TAE684 + Palbociclib (first compound 0.6325 µM); 0.422 with NVP-TAE684 + Palbociclib (first compound 2 µM). Besides, the relative viability in the experiment with NVP-TAE684 + Bortezomib (first compound 0.2 µM) was determined as 0.99; with NVP-TAE684 + Bortezomib (first compound 2 µM), 0.731; with NVP-TAE684 + Lapatinib (first compound 0.2 µM), 0.472; with NVP-TAE684 + Lapatinib (first compound 0.6325 µM), 0.446; with NVP-TAE684 + Lapatinib (first compound 2 µM), 0.387.

For the cell line PC-14, the relative viability amounted to 0.806 in the experiment with CUDC-101 + Vorinostat (first compound 0.01 µM); 0.572 with CUDC-101 + Vorinostat (first compound 0.03162 µM); 0.137 with CUDC-101 + Vorinostat (first compound 0.1 µM); 0.148 in the experiment with CUDC-101 + Vorinostat (first compound 0.3162 µM); 0.0543 with CUDC-101 + Vorinostat (first compound 1 µM); 0.207 in experiment [1] (first compound 0.005 µM). Moreover, the relative viability was found to be 0.246 in experiment [1] (first compound 0.01581 µM); 0.178 in experiment [1] (first compound 0.05 µM); 0.203 in experiment [1] (first compound 0.1581 µM); 0.179 in experiment [1] (first compound 0.5 µM); 0.434 in the experiment with NVP-TAE684 + Palbociclib (first compound 0.2 µM); 0.398 in the experiment with NVP-TAE684 + Palbociclib (first compound 0.6325 µM). The relative viability with NVP-TAE684 + Palbociclib (first compound 2 µM) turned out to be 0.0888; with NVP-TAE684 + Bortezomib (first compound 0.6325 µM), 0.928; in the experiment with NVP-TAE684 + Bortezomib (first compound 2 µM), 0.964; with NVP-TAE684 + Lapatinib (first compound 0.2 µM), 0.336; with NVP-TAE684 + Lapatinib (first compound 0.6325 µM), 0.305; with NVP-TAE684 + Lapatinib (first compound 2 µM) it was 0.245.

Regarding RERF-LC-KJ, the relative viability with CUDC-101 + Vorinostat (first compound 0.01 µM) was 0.732; with CUDC-101 + Vorinostat (first compound 0.03162 µM), 0.783; with CUDC-101 + Vorinostat (first compound 0.1 µM) it was 0.612; with CUDC-101 + Vorinostat (first compound 0.3162 µM) it was 0.659; with CUDC-101 + Vorinostat (first compound 1 µM), 0.439; in experiment [1] (first compound 0.005 µM), 0.621. Also, the relative viability came out at 0.773 in experiment [1] (first compound 0.01581 µM); 0.682 in experiment [1] (first compound 0.05 µM); 0.785 in experiment [1] (first compound 0.1581 µM); 0.606 in experiment [1] (first compound 0.5 µM); 1.14 with NVP-TAE684 + Palbociclib (first compound 0.2 µM); 1.11 in the experiment with NVP-TAE684 + Palbociclib (first compound 0.6325 µM). The relative viability in the experiment with NVP-TAE684 + Palbociclib (first compound 2 µM) is 0.907; with NVP-TAE684 + Bortezomib (first compound 0.2 µM), 0.952; with NVP-TAE684 + Bortezomib (first compound 0.6325 µM), 1.25; with NVP-TAE684 + Bortezomib (first compound 2 µM), 0.916; with NVP-TAE684 + Lapatinib (first compound 0.2 µM), 0.871; with NVP-TAE684 + Lapatinib (first compound 0.6325 µM), 0.867. The relative viability with NVP-TAE684 + Lapatinib (first compound 2 µM) turned out to be 0.905.

For SK-LU-1, the relative viability turned out to be 0.784 in the experiment with CUDC-101 + Vorinostat (first compound 0.01 µM); 0.884 with CUDC-101 + Vorinostat (first compound 0.03162 µM); 0.843 with CUDC-101 + Vorinostat (first compound 0.1 µM); 0.829 with CUDC-101 + Vorinostat (first compound 0.3162 µM); 0.567 with CUDC-101 + Vorinostat (first compound 1 µM); 0.496 in experiment [1] (first compound 0.005 µM). For the same cell line, the relative viability came out at 0.762 in experiment [1] (first compound 0.01581 µM); 0.68 in experiment [1] (first compound 0.05 µM); 0.727 in experiment [1] (first compound 0.1581 µM); 0.558 in experiment [1] (first compound 0.5 µM); 0.352 with NVP-TAE684 + Palbociclib (first compound 0.2 µM); 0.388 in the experiment with NVP-TAE684 + Palbociclib (first compound 0.6325 µM). The relative viability amounted to 0.333 in the experiment with NVP-TAE684 + Palbociclib (first compound 2 µM); 1.21 with NVP-TAE684 + Bortezomib (first compound 0.2 µM); 1.08 with NVP-TAE684 + Bortezomib (first compound 0.6325 µM); 1.01 in the experiment with NVP-TAE684 + Bortezomib (first compound 2 µM); 0.98 with NVP-TAE684 + Lapatinib (first compound 0.2 µM); 0.873 with NVP-TAE684 + Lapatinib (first compound 0.6325 µM). Moreover, the relative viability with NVP-TAE684 + Lapatinib (first compound 2 µM) was determined as 0.486.

For SW 1573, the relative viability is 0.979 with CUDC-101 + Vorinostat (first compound 0.01 µM); 0.689 with CUDC-101 + Vorinostat (first compound 0.03162 µM); 0.675 with CUDC-101 + Vorinostat (first compound 0.1 µM); 0.773 with CUDC-101 + Vorinostat (first compound 0.3162 µM); 0.468 with CUDC-101 + Vorinostat (first compound 1 µM); 0.36 in experiment [1] (first compound 0.005 µM). For the same cell line, the relative viability was found to be 0.497 in experiment [1] (first compound 0.01581 µM); 0.252 in experiment [1] (first compound 0.05 µM); 0.436 in experiment [1] (first compound 0.1581 µM); 0.504 in experiment [1] (first compound 0.5 µM); 0.414 with NVP-TAE684 + Palbociclib (first compound 0.2 µM); 0.294 with NVP-TAE684 + Palbociclib (first compound 0.6325 µM). Also, the relative viability was determined as 0.169 with NVP-TAE684 + Palbociclib (first compound 2 µM); 1.02 with NVP-TAE684 + Bortezomib (first compound 0.2 µM); 0.927 in the experiment with NVP-TAE684 + Bortezomib (first compound 2 µM); 1.16 with NVP-TAE684 + Lapatinib (first compound 0.2 µM); 1.12 in the experiment with NVP-TAE684 + Lapatinib (first compound 0.6325 µM); 1.13 with NVP-TAE684 + Lapatinib (first compound 2 µM).
